In patent publication US8367695B2, “Condensed tetrahydroquinoline derivative and use thereof for medical purposes” (Mitsubishi Tanabe Pharma Corporation, priority 2007, dated 2013):
Read-outs that look alike come from different tables or passages of the source.

Target: T1, human recombinant glucocorticoids receptor (GR) (Homo sapiens, UniProt P04150)
T1 sequence (P04150 1-777): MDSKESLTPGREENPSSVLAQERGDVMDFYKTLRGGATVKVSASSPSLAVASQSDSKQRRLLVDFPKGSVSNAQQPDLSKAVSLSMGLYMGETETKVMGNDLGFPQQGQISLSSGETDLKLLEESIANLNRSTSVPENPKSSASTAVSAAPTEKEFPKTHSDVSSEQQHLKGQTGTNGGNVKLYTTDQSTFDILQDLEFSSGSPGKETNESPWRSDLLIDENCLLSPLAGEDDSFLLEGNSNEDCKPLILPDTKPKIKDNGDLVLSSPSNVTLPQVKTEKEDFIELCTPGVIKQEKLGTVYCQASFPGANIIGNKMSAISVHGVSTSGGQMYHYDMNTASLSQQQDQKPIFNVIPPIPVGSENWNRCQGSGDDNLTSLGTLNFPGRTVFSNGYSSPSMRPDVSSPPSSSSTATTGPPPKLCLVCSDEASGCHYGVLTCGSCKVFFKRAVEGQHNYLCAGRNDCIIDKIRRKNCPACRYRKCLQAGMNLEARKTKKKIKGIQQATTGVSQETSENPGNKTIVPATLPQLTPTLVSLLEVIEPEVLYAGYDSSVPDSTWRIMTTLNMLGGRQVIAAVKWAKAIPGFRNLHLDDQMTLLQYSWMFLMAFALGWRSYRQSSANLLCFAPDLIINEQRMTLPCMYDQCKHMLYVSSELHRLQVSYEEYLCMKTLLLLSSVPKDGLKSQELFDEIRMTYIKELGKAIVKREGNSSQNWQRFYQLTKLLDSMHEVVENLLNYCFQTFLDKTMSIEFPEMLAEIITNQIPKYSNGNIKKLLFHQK
Assay: Radioactive ligand binding test, GR cytosol, [3H]-Dex
Procedure: Radioactive Ligand Binding Test Using Cytosols of Human Glucocorticoids Receptor, Progesterone Receptor and Mineralocorticoid Receptor
Opthalmol. Vis. […] In brief, cytosol preparations of human recombinant glucocorticoids receptor (GR) and human recombinant progesterone receptor-B (PRB) were purchased from Invitrogen (Carlsbad, Calif.), and a cytosol preparation of human recombinant mineralocorticoid receptor (MR) was prepared by our company (Yokohama, JP). MR cDNA was cloned into a baculovirus expression vector and expressed in insect cell Sf9. […] [^3H]-Dexamethasone (Dex, specific activity 91.0 Ci/mmol) was purchased from GE Healthcare (Buckinghamshire, UK), and [^3H]-progesterone (Prog, specific activity 103 Ci/mmol) and [3H]-aldosterone (Ald, specific activity 87.9 Ci/mmol) were each purchased from PerkinElmer (Boston, Mass.). Polypropylene round-bottomed 96 well plate was obtained from ABgene (Epsom, UK). Dimethyl Sulfoxide (DMSO) and hydrochloric acid were obtained from Kanto Chemical (TOKYO, JP). Trizma Base (Tris), Bovine Serum Albumin (BSA) and Sodium tungstate dihydrate were obtained from Sigma Chemicals (St. Louis, Mo.). Dithiothreitol (DTT) and Dextran 70 were obtained from GE Healthcare (Buckinghamshire, UK). Glycerol was obtained from Junsei Chemical (TOKYO, JP). Norit® “SX-II” was obtained from Wako Pure Chemical Industries, Ltd. (Osaka, JP). MeltiLex™, A, Printed Filtermat A and Sample Bag were obtained from PerkinElmer (Boston, Mass.).
As a buffer for GR binding assay, 25 mM Tris-HCl (4° C., pH 7.4)/1 mM EDTA·2Na/1 mM DTT/0.1% BSA was prepared and used. As buffers for PRB and MR binding assay, 10 mM Tris-HCl (4° C., pH 7.4)/1 mM DTT/0.1% BSA/10% glycerol and 20 mM Tris-HCl (4° C., pH 7.4)/1 mM EDTA·2Na/10% glycerol/20 mM sodium tungstate were respectively prepared and used.
Compound storage solutions (5-20 mM) were prepared using DMSO. The storage solutions were diluted with DMSO to 0.1 mM (for GR) and 0.3 mM (for PRB and MR), and further diluted 20-fold with distilled water to give solutions. Then, the preparations were diluted to each concentration with 5% DMSO solution. 1% DMSO was present at the time of the binding assay.
GR, PRB and MR binding reactions were performed in 96 well plate (ABgene). In the case of GR binding assay, [^3H]-Dex (about 5 nM), GR cytosol (concentration of function receptor: about 4 pmol/mL), a test compound and a binding buffer were mixed in a total volume of 50 μL, and the mixture was stood at 4° C. for 30 min or longer. A specific binding was defined to be the difference in the [^3H]-Dex binding between the presence and the absence of 1 μM unlabeled Dex.
After the reaction, 50 μL of DCC was added to each well and blended. Thereafter, the mixture was stood at 4° C. for 10 min. The plate was applied to high-speed cooling centrifuge under the conditions of 4° C., 2000 rpm, 5 min to perform B/F separation. A given amount of the supernatant was recovered, which was spotted on Filtermat A of 96 well format (PerkinElmer) and rapidly dried at a high temperature.
Measurement of Inhibition Constant (Ki)
Ki of the test compound was determined by the following Cheng-Prusoff equation: Ki=IC50/(1+[L*]/Kd) • wherein L* is a concentration of radioactive ligand and Kd is a dissociation constant for radioactive ligand determined by saturation analysis.

[1] = [3H]-Dex about 5 nM, GR cytosol, 4° C., Cheng-Prusoff, Kd about 3.1 nM, read-out: GR (Ki: nM)

Compound: Cc1noc(C)c1-c1cc2c(c3c1CCC3)NC(C)(C)C(=O)C2(C)C [Example 2, 6-(3,5-dimethylisoxazol-4-yl)-2,2,4,4-tetramethyl-2,3,4,7,8,9-hexahydro-1H-cyclopenta[h]quinolin-3-one]
- Ki [1]: 15 nM

Compound: Cc1nnn(C)c1-c1cc2c(c3c1CCC3)NC(C)(C)C(=O)C2(C)C [Example 4, 6-(3,5-dimethyl-3H-[1,2,3]triazol-4-yl)-2,2,4,4-tetramethyl-2,3,4,7,8,9-hexahydro-1H-cyclopenta[h]quinolin-3-one]
- Ki [1]: 53 nM

Compound: CC1(C)Nc2c(cc(-c3ccnc4cc[nH]c34)c3c2CCC3)C(C)(C)C1=O [Example 13, 2,2,4,4-tetramethyl-6-(1H-pyrrolo[3,2-b]pyridin-7-yl)-2,3,4,7,8,9-hexahydro-1H-cyclopenta[h]quinolin-3-one]
- Ki [1]: 54 nM

Compound: CC1(C)Nc2c(cc(-c3cccc4nccn34)c3c2CCC3)C(C)(C)C1=O [Example 14, 6-(imidazo[1,2-a]pyridin-5-yl)-2,2,4,4-tetramethyl-2,3,4,7,8,9-hexahydro-1H-cyclopenta[h]quinolin-3-one]
- Ki [1]: 11 nM

Compound: CC1(C)Nc2c(cc(-c3cccc4nncn34)c3c2CCC3)C(C)(C)C1=O [Example 17, 2,2,4,4-tetramethyl-6-([1,2,4]triazolo[4,3-a]pyridin-5-yl)-2,3,4,7,8,9-hexahydro-1H-cyclopenta[h]quinolin-3-one]
- Ki [1]: 53 nM

Compound: CC1(C)Nc2c(cc(-c3cccc4ncccc34)c3c2CCC3)C(C)(C)C1=O [Example 20, 2,2,4,4-tetramethyl-6-(quinolin-5-yl)-2,3,4,7,8,9-hexahydro-1H-cyclopenta[h]quinolin-3-one]
- Ki [1]: 70 nM

Compound: CC1(C)Nc2c(cc(-c3ccnc4ncccc34)c3c2CCC3)C(C)(C)C1=O [Example 21, 2,2,4,4-tetramethyl-6-([1,8]naphthyridin-4-yl)-2,3,4,7,8,9-hexahydro-1H-cyclopenta[h]quinolin-3-one]
- Ki [1]: 35 nM

Compound: C=C1C(C)(C)Nc2c(cc(-c3c(C)ncn3C)c3c2CCC3)C1(C)C [Example 29, 6-(3,5-dimethyl-3H-imidazol-4-yl)-2,2,4,4-tetramethyl-3-methylene-2,3,4,7,8,9-hexahydro-1H-cyclopenta[h]quinoline]
- Ki [1]: 58 nM

Compound: C=CCC1(C)C(=O)C(C)(C)Nc2c1cc(-c1ccc(O)cc1C)c1c2CCC1 (stereo not drawn) [Example 50, 4-allyl-6-(4-hydroxy-2-methylphenyl)-2,2,4-trimethyl-2,3,4,7,8,9-hexahydro-1H-cyclopenta[h]quinolin-3-one]
- Ki [1]: 97 nM

Compound: C=CCC1(C)C(=O)C(C)(C)Nc2c1cc(-c1c(C)noc1C)c1c2CCC1 (stereo not drawn) [Example 51, 4-allyl-6-(3,5-dimethylisoxazol-4-yl)-2,2,4-trimethyl-2,3,4,7,8,9-hexahydro-1H-cyclopenta[h]quinolin-3-one]
- Ki [1]: 17 nM

Compound: C=CCC1(C)C(=O)C(C)(C)Nc2c1cc(-c1cccc3nccn13)c1c2CCC1 (stereo not drawn) [Example 57, 4-allyl-6-(imidazo[1,2-a]pyridin-5-yl)-2,2,4-trimethyl-2,3,4,7,8,9-hexahydro-1H-cyclopenta[h]quinolin-3-one]
- Ki [1]: 14 nM

Compound: CCC1(C)C(=O)C(C)(C)Nc2c1cc(-c1cccc3nccn13)c1c2CCC1 (stereo not drawn) [Example 58, 4-ethyl-6-(imidazo[1,2-s]pyridin-5-yl)-2,2,4-trimethyl-2,3,4,7,8,9-hexahydro-1H-cyclopenta[h]quinolin-3-one]
- Ki [1]: 12 nM

Compound: CC#CCC1(C)C(=O)C(C)(C)Nc2c1cc(-c1cccc3nccn13)c1c2CCC1 (stereo not drawn) [Example 63, 4-(2-butynyl)-6-(imidazo[1,2-a]pyridin-5-yl)-2,2,4-trimethyl-2,3,4,7,8,9-hexahydro-1H-cyclopenta[h]quinolin-3-one]
- Ki [1]: 27 nM

Compound: Cc1noc(C)c1-c1cc2c(c3c1OCO3)NC(C)(C)C(=O)C2(C)C [Example 69, 4-(3,5-dimethylisoxazol-4-yl)-6,6,8,8-tetramethyl-6,7,8,9-tetrahydro-[1,3]dioxolo[4,5-h]quinolin-7-one]
- Ki [1]: 55 nM

Compound: CC1(C)Nc2c(cc(-c3cccc4nccn34)c3c2OCO3)C(C)(C)C1=O [Example 71, 4-(imidazo[1,2-a]pyridin-5-yl)-6,6,8,8-tetramethyl-6,7,8,9-tetrahydro-[1,3]dioxolo[4,5-h]quinolin-7-one]
- Ki [1]: 59 nM

Compound: CC1(C)Nc2c(cc(-c3cccc4ncccc34)c3c2OCO3)C(C)(C)C1=O [Example 72, 6,6,8,8-tetramethyl-4-(quinolin-5-yl)-6,7,8,9-tetrahydro-[1,3]dioxolo[4,5-h]quinolin-7-one]
- Ki [1]: 96 nM

Compound: C=CCC1(C)C(=O)C(C)(C)Nc2c1cc(-c1cccc3cc[nH]c13)c1c2OCO1 (stereo not drawn) [Example 78, 6-allyl-4-(1H-indol-7-yl)-6,8,8-trimethyl-6,7,8,9-tetrahydro-[1,3]dioxolo[4,5-h]quinolin-7-one]
- Ki: 80 nM

Compound: CC1(C)Nc2c(cc(-c3cccc4nccn34)c3c2OC(F)(F)O3)C(C)(C)C1=O [Example 82, 2,2-difluoro-4-(imidazo[1,2-a]pyridin-5-yl)-6,6,8,8-tetramethyl-6,7,8,9-tetrahydro-[1,3]dioxolo[4,5-h]quinolin-7-one]
- Ki [1]: 47 nM

Compound: Cc1noc(C)c1-c1cc2c(c3c1OCC3)NC(C)(C)C(=O)C2(C)C [Example 84, 6-(3,5-dimethylisoxazol-4-yl)-2,2,4,4-tetramethyl-1,2,3,4,8,9-hexahydro-furo[2,3-h]quinolin-3-one]
- Ki [1]: 27 nM

Compound: CC1(C)Nc2c(cc(-c3cccc4nccn34)c3c2CCO3)C(C)(C)C1=O [Example 88, 6-(imidazo[1,2-a]pyridin-5-yl)-2,2,4,4-tetramethyl-1,2,3,4,8,9-hexahydro-furo[2,3-h]quinolin-3-one]
- Ki [1]: 19 nM

Compound: CC1(C)Nc2c(cc(-c3ccnc4ncccc34)c3c2CCO3)C(C)(C)C1=O [Example 92, 2,2,4,4-tetramethyl-6-([1,8]naphthyridin-4-yl)-1,2,3,4,8,9-hexahydro-furo[2,3-h]quinolin-3-one]
- Ki [1]: 64 nM

Compound: Cc1onc(CO)c1-c1cc2c(c3ccoc13)NC(C)(C)C(=O)C2(C)C [Example 94, 6-(3-hydroxymethyl-5-methylisoxazol-4-yl)-2,2,4,4-tetramethyl-1,2,3,4-tetrahydro-furo[2,3-h]quinolin-3-one]
- Ki [1]: 11 nM

Compound: CC1(C)Nc2c(cc(-c3cccc4nccn34)c3occc23)C(C)(C)C1=O [Example 98, 6-(imidazo[1,2-a]pyridin-5-yl)-2,2,4,4-tetramethyl-1,2,3,4-tetrahydro-furo[2,3-h]quinolin-3-one]
- Ki [1]: 15 nM

Compound: CC1(C)Nc2c(cc(-c3cncc4nccn34)c3occc23)C(C)(C)C1=O [Example 100, 6-(imidazo[1,2-a]pyrazin-5-yl)-2,2,4,4-tetramethyl-1,2,3,4-tetrahydro-furo[2,3-h]quinolin-3-one]
- Ki [1]: 85 nM
